In patent US9765075B2, “Substituted bridged urea analogs as sirtuin modulators” (GLAXOSMITHKLINE LLC, priority 2013, dated 2017):
Read-outs that look alike come from different tables or passages of the source.

Biological target: T1, SIRT1 (Homo sapiens, UniProt Q96EB6)
T1 sequence (Q96EB6 1-747): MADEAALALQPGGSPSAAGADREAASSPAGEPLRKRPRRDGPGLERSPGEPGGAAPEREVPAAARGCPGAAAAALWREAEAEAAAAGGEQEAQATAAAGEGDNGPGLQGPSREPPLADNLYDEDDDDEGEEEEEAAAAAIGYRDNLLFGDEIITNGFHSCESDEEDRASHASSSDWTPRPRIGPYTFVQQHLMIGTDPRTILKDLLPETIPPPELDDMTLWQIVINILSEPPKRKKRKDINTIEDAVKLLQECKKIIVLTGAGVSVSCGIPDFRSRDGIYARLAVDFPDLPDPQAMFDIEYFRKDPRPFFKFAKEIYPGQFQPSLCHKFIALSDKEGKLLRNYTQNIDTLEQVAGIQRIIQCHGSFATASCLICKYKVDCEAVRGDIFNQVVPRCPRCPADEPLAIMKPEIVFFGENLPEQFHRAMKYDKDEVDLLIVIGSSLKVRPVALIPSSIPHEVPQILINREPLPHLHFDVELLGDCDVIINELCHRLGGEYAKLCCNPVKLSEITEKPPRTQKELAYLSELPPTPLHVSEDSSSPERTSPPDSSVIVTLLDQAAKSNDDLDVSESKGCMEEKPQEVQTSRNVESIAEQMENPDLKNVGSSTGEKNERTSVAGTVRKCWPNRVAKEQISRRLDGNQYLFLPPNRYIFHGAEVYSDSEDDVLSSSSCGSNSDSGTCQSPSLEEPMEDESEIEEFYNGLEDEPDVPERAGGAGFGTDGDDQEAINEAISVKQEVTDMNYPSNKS
Assay: Trp mass spectrometry assay (SIRT1 activation)
Assay type: biochemical
Conditions: for Emax: percent maximum fold activation of SIRT1, read-out: Tryp % Fold Act
Procedure, shortened: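 Activation is expressed as EC1.5, the concentration raising activity 50% above DMSO control, and as maximum percent of control. Mass-spec readout was OAADPR or deacetylated Trp peptide after a formic-acid-quenched 25-min, 25 °C reaction: 10 nM bacterially expressed His-SIRT1, 0.5 μM acetyl-p53-derived peptide, 120 μM NAD+, pH 7.5 HEPES with […].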

[1] = concentration of test compound that results in 150% activation of SIRT1, Trp peptide substrate
[2] = Trp mass spectrometry assay, EC1.5 = concentration giving 150% activation of SIRT1
[3] = Trp mass spectrometry assay, EC1.5 = concentration of test compound that results in 150% activation of SIRT1

| Tryp AVG EC1.5 (μM) [1] | Emax (Trp peptide substrate) [%] | Tryp AVG EC1.5 (μM) [2] | Emax (Trp mass spectrometry assay) [%] | Tryp AVG EC1.5 (μM) [3] | SMILES |
| --- | --- | --- | --- | --- | --- |
| A (EC1.5<1 μM) | ≥ 150 | – | – | – | O=C(Nc1ccccn1)N1c2nc(-c3ccc(Cl)c(Cl)c3)ccc2N2CC[C@H]1C2 [Example 332] |
| A (EC1.5<1 μM) | ≥ 150 | – | – | – | O=C(Nc1ccccn1)N1c2nc(-c3cc(F)cc(C(F)(F)F)c3)ccc2N2CC[C@H]1C2 [Example 333] |
| B (EC1.5 1-25 μM) | ≥ 150 | – | – | – | O=C(Nc1ccc(F)cn1)N1c2nc(-c3cccc(N4CC[C@H](F)C4)c3)ccc2N2CC[C@H]1C2 [Example 270] |
| – | – | B (EC1.5 1-25 μM) | ≥ 150 | – | O=C(Nc1cc(-c2cnco2)ccn1)N1c2nc(-c3cccc(C(F)(F)F)c3)ccc2N2C[C@@H](O)[C@H]1C2 [Example 662] |
| – | – | B (EC1.5 1-25 μM) | ≥ 150 | – | CC(C)(C)c1nnc(NC(=O)N2c3nc(-c4cccc(C(F)(F)F)c4)ccc3N3CC[C@H]2C3)s1 [Example 649] |
| – | – | – | ≥ 150 | B (EC1.5 1-25 μM) | Cn1ccc(NC(=O)N2c3nc(-c4cccc(N5CCCC5)c4)ccc3N3CC[C@H]2C3)n1 [Example 208] |
| C (EC1.5>25 μM) | < 150 | – | – | – | O=C(O[C@@H]1CN2C[C@H]1N(C(=O)Nc1ccccn1)c1nc(-c3cccc(C(F)(F)F)c3)ccc12)c1ccccc1 [Example 603] |
| B (EC1.5 1-25 μM) | ≥ 150 | – | – | – | O=C(Nc1cnccn1)N1c2nc(-c3cc(C(F)(F)F)cc(C(F)(F)F)c3)ccc2C2CC[C@H]1C2 [Example 363] |
| A (EC1.5<1 μM) | ≥ 150 | – | – | – | COc1cc(NC(=O)N2c3nc(-c4cccc(Cl)c4)ccc3N3CCC[C@H]2C3)ncn1 [Example 408] |
| A (EC1.5<1 μM) | ≥ 150 | – | – | – | Cc1ccc(-c2ccc3c(n2)N(C(=O)Nc2nc(C)c(C)s2)[C@H]2CCCN3C2)cn1 [Example 506] |
| – | – | – | ≥ 150 | B (EC1.5 1-25 μM) | O=C(Nc1ccc(F)cn1)N1c2nc(-c3cccc(OC[C@@H](O)CO)c3)ccc2N2CC[C@H]1C2 [Example 146] |
| A (EC1.5<1 μM) | ≥ 150 | – | – | – | O=C(Nc1ccc(F)cn1)N1c2nc(-c3ccnc(N4CCC(F)(F)C4)c3)ccc2N2CC[C@H]1C2 [Example 425] |
| – | – | A (EC1.5<1 μM) | ≥ 150 | – | [N-]=[N+]=NCc1cc(N=[N+]=[N-])cc(-c2ccc3c(n2)N(C(=O)Nc2cnccn2)[C@H]2CCN3C2)c1 [Example 808] |
| B (EC1.5 1-25 μM) | ≥ 150 | – | – | – | Cc1cc(-c2ccc3c(n2)N(C(=O)Nc2cnc(OC[C@@H](O)CO)cn2)[C@H]2CCN3C2)ccn1 [Example 561] |
| A (EC1.5<1 μM) | ≥ 150 | – | – | – | O=C(Nc1ccc(F)cn1)N1c2nc(-c3ccnc(N4CC[C@H](F)C4)c3)ccc2N2CC[C@H]1C2 [Example 463] |
| A (EC1.5<1 μM) | ≥ 150 | – | – | – | O=C(Nc1cccc(-c2cnco2)c1)N1c2nc(-c3cccc(C(F)(F)F)c3)ccc2N2CCC1CC2 [Example 473] |
| – | – | B (EC1.5 1-25 μM) | ≥ 150 | – | O=C(Nc1cccnn1)N1c2nc(-c3cccc(C(F)(F)F)c3)ccc2N2C[C@@H](O)[C@H]1C2 [Example 631] |
| B (EC1.5 1-25 μM) | ≥ 150 | – | – | – | Cc1cc(NC(=O)N2c3nc(N4CC[C@H](N(C)C)C4)ccc3N3CC[C@H]2C3)cc(C)n1 [Example 245] |
| A (EC1.5<1 μM) | ≥ 150 | – | – | – | Cc1cncc(NC(=O)N2c3nc(N4CCCC(C(F)(F)F)C4)ccc3N3CCC[C@H]2C3)c1 (stereo partly shown) [Example 289] |
| B (EC1.5 1-25 μM) | ≥ 150 | – | – | – | O=C(Nc1ccccn1)N1c2nc(-c3cncc(F)c3)ccc2N2CCC1CC2 [Example 570] |
| B (EC1.5 1-25 μM) | ≥ 150 | – | – | – | Cc1nc(NC(=O)N2c3nc(-c4cncc(F)c4)ccc3N3CCC[C@H]2C3)sc1C [Example 471] |
| – | – | – | ≥ 150 | – | O=C(Nc1ccccn1)N1c2nc(-c3cccc(C(F)(F)F)c3)ccc2N2CC(O)C1C2 (stereo not shown) [Example 85] |
